Data from PMC6143625, “A high throughput screen for next-generation leads targeting malaria parasite transmission” (Nature Communications, 2018).
Like-named read-outs stand apart in the source and are kept apart here.

What was measured:
[1] = tested on: P. falciparum 3D7 asexual blood stages; test: Whole-cell time extended asexual growth assay (pLDH); type: cell-based; conditions: Plasmodium falciparum, 72 h; for IC50: dose response retest, read-out: IC50 (µM) Asex stages; for inhibition at 2 µM: primary screen, read-out: %Inh Asex stages @2uM
Experimental: Asexual activity was assayed via Plasmodium lactate dehydrogenase activity (pLDH), a surrogate of asexual parasite growth. […] 2 µM artesunate and DMSO were used as the positive and negative controls, respectively. […] After plate mixing, NBT reduction was measured by absorbance at 650 nm using Envision (Perkin Elmer).

HepG2 human cells = tested on: HepG2 human cells; parameters: method as in http://dx.doi.org/10.6019/CHEMBL3507680; conditions: ref http://dx.doi.org/10.6019/CHEMBL3507680; cited from earlier work
[2] = tested on: P. falciparum stage V male gametocytes (male gamete formation); test: P. falciparum dual gamete formation assay (Pf DGFA), male readout (exflagellation), 48 h carry-over format; type: cell-based, Plasmodium falciparum NF54; conditions: for IC50 / inhibition at 2 µM: Plasmodium falciparum; for IC50: read-out: Male IC50; for inhibition at 2 µM / %Inhibition Male @2uM: primary screen, single replicate
[3] = tested on: P. falciparum stage V female gametocytes (female gamete formation); test: P. falciparum dual gamete formation assay (Pf DGFA), female readout (Pfs25 expression), 48 h carry-over format; type: cell-based, Plasmodium falciparum NF54; conditions: for IC50 / inhibition at 2 µM: Plasmodium falciparum; for IC50: read-out: Female IC50; for inhibition at 2 µM / %Inhibition Female @2uM: primary screen, single replicate
[4] = 48 h, dose response retest of primary hits, 48 h incubation

Structure (SMILES) | IC50 [1] | inhibition at 2 µM [1] | %Inh HepG2 @10uM (HepG2 human cells) | further results
COc1cc(CNCC(O)c2ccc(F)c(F)c2)cc2c1OCO2 (centres unmarked) [DDD00408586] | 3 µM | 56.7% | 29.87% | –
CCCc1nc2c(c(C)c(C)n2CCN(C)C)c(N)c1CC [DDD01026700] | 5.25 µM | 39.3% | 3.64% | –
CCc1c(-c2ccccc2)nc2c(c(C)c(C)n2CCN(C)C)c1N [DDD01026714] | 3.31 µM | 48.1% | 15.22% | –
O=C(CN1CC(c2nc(C3CC3)no2)C1)N1CCOCC1.O=C(O)C(=O)O [DDD01027902] | – | – | -17.5% | IC50 [2, 4]: 1.18 µM; inhibition at 2 µM ([2]; 48 h incubation): 52.5%; IC50 [3, 4]: 5.81 µM; inhibition at 2 µM ([3]; 48 h incubation): < 30%
CC(C)Nc1nc2c(c(NC3CC3)n1)CCN(C1CCOCC1)CC2 [DDD01029612] | 3.54 µM | 33.7% | -3.76% | –
CC(C)Nc1nc2c(c(NC3CC3)n1)CN(C(=O)c1ccsc1)CC2 [DDD01030030] | 1.15 µM | 58.7% | -17.20% | –
COc1ccc(CN2CCc3c(CNC(=O)CC#N)nn(C)c3C2)cc1.O=C(O)C(F)(F)F.O=C(O)C(F)(F)F [DDD01030619] | – | – | -1.4% | IC50 [2, 4]: 1.34 µM; inhibition at 2 µM ([2]; 48 h incubation): 59.5%; IC50 [3, 4]: > 10 µM; inhibition at 2 µM ([3]; 48 h incubation): < 30%
c1cncc(-c2ccc3c(c2)CCC32CCNCC2)c1 [DDD01031368] | 3.86 µM | 38.8% | 17.78% | –
COc1cccc(C2SCC(=O)Nc3ccsc32)c1OC (centres unmarked) [DDD01034924] | 5.19 µM | 33.1% | 1.70% | –
I.c1ccc(Sc2ccc3c(c2)OCO3)c(CNC2=NCCN2)c1 [DDD01035544] | 3.12 µM | 30.4% | -0.79% | –
O=C(Nc1cnn(COc2ccc(F)cc2Cl)c1)C1CC1 [DDD01037427] | 3.65 µM | 46.4% | 9.89% | –
COCCCNC(=O)c1cc(C(C)C)nc(N2CCCCCC2)n1 [DDD01038653] | 6.14 µM | 40.6% | -8.22% | –
Cc1cccc(C)c1Nc1noc2c1CN(C(=O)c1ccn(C)n1)CC2 [DDD01057030] | 2 µM | 47.3% | 46.43% | –
Cl.NC1CCc2nc(-c3cccnc3)nc(Nc3ccc(F)cc3)c2C1 (centres unmarked) [DDD01057099] | 1.37 µM | 68.5% | 3.41% | –
CC(C)Nc1cc(-c2c[nH]nc2C2CCN(C(=O)C3CC3)C2)ccn1 (centres unmarked) [DDD01057305] | 5.06 µM | 30.6% | 96.71% | –
CC(C)CNc1cc(-c2c[nH]nc2C2CCN(C(=O)C3CC3)C2)ccn1 (centres unmarked) [DDD01057306] | 3.78 µM | 35.1% | 95.13% | –
COc1ccc(CNC(Cc2ccsc2)c2ccc(C)cn2)c(OC)c1 (centres unmarked) [DDD01058868] | – | – | 85.33% | IC50 [2, 4]: > 10 µM; inhibition at 2 µM ([2]; 48 h incubation): < 30%; IC50 [3, 4]: 5.3 µM; inhibition at 2 µM ([3]; 48 h incubation): 30.8%
Cc1cccnc1CN1CC[C@H](Oc2cccc(F)c2)[C@@](C)(O)C1 [DDD01060871] | – | – | -0.828% | IC50 [2, 4]: > 10 µM; inhibition at 2 µM ([2]; 48 h incubation): < 30%; IC50 [3, 4]: 6.07 µM; inhibition at 2 µM ([3]; 48 h incubation): 32.8%
CC(NCC1CCN(CCO)CC1)c1ccc(C(F)(F)F)cc1 (centres unmarked) [DDD01073719] | – | – | 14.02% | IC50 [2, 4]: 7.83 µM; inhibition at 2 µM ([2]; 48 h incubation): 34.8%; IC50 [3, 4]: > 10 µM; inhibition at 2 µM ([3]; 48 h incubation): < 30%
O=C(C1CC2(CCNCC2)CN1)N1CCN(c2cccc(Cl)c2Cl)CC1 (centres unmarked) [DDD01243908] | – | – | -1.58% | IC50 [2, 4]: 4.28 µM; inhibition at 2 µM ([2]; 48 h incubation): 65.7%; IC50 [3, 4]: 4.79 µM; inhibition at 2 µM ([3]; 48 h incubation): < 30%
CC(C)COC(C)C(=O)NCc1ccc(-n2cncn2)nc1 (centres unmarked) [DDD01301486] | – | – | – | %Inhibition Male @2uM ([2]; 48 h incubation): <30%; %Inhibition Female @2uM ([3]; 48 h incubation): 33.08%
COc1ccc(-c2nc(CNCCn3cccn3)cs2)cc1 [DDD01301541] | – | – | – | %Inhibition Male @2uM ([2]; 48 h incubation): <30%; %Inhibition Female @2uM ([3]; 48 h incubation): 31.18%
CC(CC(=O)NS(=O)(=O)c1ccc2c(c1)OCCO2)c1ccc(F)cc1 (centres unmarked) [DDD01301601] | – | – | – | %Inhibition Male @2uM ([2]; 48 h incubation): <30%; %Inhibition Female @2uM ([3]; 48 h incubation): 38.27%
c1cnc(-c2nc(CN3CCn4c(nnc4C4CC4)C3)cs2)nc1 [DDD01301615] | – | – | – | %Inhibition Male @2uM ([2]; 48 h incubation): <30%; %Inhibition Female @2uM ([3]; 48 h incubation): 32.48%
Cc1nc(C)n(CC2CCCN(CCOc3cccc(C#N)c3)C2)n1 (centres unmarked) [DDD01302568] | – | – | – | %Inhibition Male @2uM ([2]; 48 h incubation): 85.34%; %Inhibition Female @2uM ([3]; 48 h incubation): <30%
CCC(NC(=O)c1ccco1)c1ccccc1OCC(=O)N1CCCC1 (centres unmarked) [DDD01302666] | – | – | – | %Inhibition Male @2uM ([2]; 48 h incubation): 33.09%; %Inhibition Female @2uM ([3]; 48 h incubation): <30%
CC(C)CCN(C)C(=O)c1nc(S(C)(=O)=O)n2ccccc12 [DDD01302801] | – | – | – | %Inhibition Male @2uM ([2]; 48 h incubation): 31.11%; %Inhibition Female @2uM ([3]; 48 h incubation): <30%
COc1ccc(NC(=O)c2ccc(-n3ncc(C#N)c3N)cc2)cn1 [DDD01303472] | – | – | 3.50% | –
O=C(NCC1(O)CCOc2ccccc21)c1ccc(Br)s1 (centres unmarked) [OJF-034] | – | – | – | IC50 ([2]; SAR, Fig. 6 and Fig. 7): > 25 µM; IC50 ([3]; SAR, Fig. 7): > 25 µM

Continued, in another order:

IC50 [1] | Structure (SMILES) | inhibition at 2 µM [1] | %Inh HepG2 @10uM (HepG2 human cells) | further results
4.49 µM | Cc1c(-c2ccccc2)nc2c(c(C)c(C)n2CCN(C)C)c1N [DDD01026725] | 46.1% | 13.65% | –
2.18 µM | CC(C)n1ncc2c1NC(=O)CC21C(=O)Nc2c(Cl)ccc(Cl)c21 (centres unmarked) [DDD01027128] | 96.3% | -12.20% | –
2.5 µM | CC(C)Nc1nc2c(c(NC3CC3)n1)CN(C(=O)Cc1ccsc1)CC2 [DDD01029980] | 33.2% | 3.26% | –
2.17 µM | Cc1nnc(N2CC[C@@H](OCC3CC3)[C@@H](Cc3ccccc3)C2)s1.O=C(O)C(F)(F)F [DDD01032950] | 45.4% | -7.86% | –
2.59 µM | CN(Cc1ccco1)C[C@H]1OC[C@@H]2CCN(Cc3ccccn3)C[C@@H]21.O=C(O)C(F)(F)F.O=C(O)C(F)(F)F.O=C(O)C(F)(F)F [DDD01033585] | 41% | -8.48% | –
1.48 µM | COc1ccc(N2CCCC3(C2)CN(c2nncs2)CCO3)cc1 (centres unmarked) [DDD01034473] | 87.8% | 1.09% | –
5.98 µM | Cc1[nH]/c(=N\C(=O)c2csc(NC3CCCC3)n2)sc1C [DDD01035522] | 32.6% | 31.16% | –
9.35 µM | CC(C)c1nnc2ccc(N3CCC(C(=O)Nc4nccs4)CC3)nn12 [DDD01036018] | 30.4% | 10.73% | –
1.88 µM | CCN(CC)c1nc(Nc2cccc(C(C)O)c2)nc2ccccc12 (centres unmarked) [DDD01037966] | 44.9% | 65.01% | –
1.67 µM | CC(O)c1cccc(Nc2nc(NCCO)c3ccccc3n2)c1 (centres unmarked) [DDD01037968] | 41.9% | -5.65% | –
2.29 µM | Oc1ccc(Cl)cc1CNCc1ccccc1Cl [DDD01038243] | 49.1% | -8.63% | –
1.69 µM | Oc1ccc(Cl)cc1CNCc1cccc(C(F)(F)F)c1 [DDD01038245] | 52.7% | -12.90% | –
1.52 µM | Cc1ccccc1CNCc1cc(Cl)ccc1O [DDD01038246] | 53.9% | -11.50% | –
3.16 µM | COc1cccc(CNCc2cccc(Cl)c2)c1O [DDD01038248] | 33.1% | -4.96% | –
1.59 µM | COc1cccc(CNCc2ccc(F)c(Cl)c2)c1O [DDD01038250] | 68.7% | 27.04% | –
3.8 µM | Cc1nn(C)c(C)c1CCn1cncc1-c1ccc2c(c1)CC(C)N2C.Cl (centres unmarked) [DDD01056530] | 51% | 4.43% | –
1.46 µM | Cc1cccc(C)c1Nc1noc2c1CN(C(=O)c1ccnn1C)CC2 [DDD01056796] | 68.6% | 69.80% | –
1.55 µM | Cc1cccc(C)c1Nc1noc2c1CN(C(=O)c1cn(C)cn1)CC2 [DDD01056797] | 81.2% | 75.15% | –
1.85 µM | CCCNc1cc(-c2c[nH]nc2C2CCN(C(=O)C3CCC3)C2)ccn1 (centres unmarked) [DDD01057089] | 43.4% | 96.64% | –
2.39 µM | CC(C)Nc1cc(-c2c[nH]nc2C2CCN(C(=O)C3CCC3)C2)ccn1 (centres unmarked) [DDD01057307] | 36.2% | 95.83% | –
1.67 µM | CCOc1ccc(CN2CCCC(c3cc4ncccc4[nH]3)C2)cc1 (centres unmarked) [DDD01057418] | 91.8% | 6.95% | –
5.84 µM | COCC(=O)N1CCCC(c2nc(N(C)C)ncc2-c2ccccc2)C1 (centres unmarked) [DDD01057962] | 42.5% | 4.41% | –
0.456 µM | Cc1nn(C)cc1C1=NS(=O)(=O)N(C)C(C(=O)Nc2ccc(Cl)cc2)=C1 [DDD01058696] | 97.9% | 1.32% | –
